Measured values reported in US20150342165A1, “HUMANIZED MOUSE AND METHODS OF USING THE SAME” (City of Hope, priority 2014, published 2015).
Like-named read-outs stand apart in the source and are kept apart here.

Tested on: GM-HSPC and their progeny
Conditions: for Enrichment of frequency of CD45+/GFP+ cells in spleen and bone marrow: necropsy 11 weeks after transplantation
Description: All animals except control mice received 20 mg/kg O^6BG (Sigma-Aldrich, St. Louis, Mo.) followed by 5 mg/kg BCNU (Sigma-Aldrich, St. Louis, Mo.) mouse 1.5 hour later via IP injection. Drug doses were administered at either at the 7th and 8th or 7th, 8th, and 9th weeks post-transplantation. O^6BG was prepared in 35% PEG-400 (Sigma-Aldrich, St. Louis, Mo.) and 60% injectable saline.
Lentiviral vector was produced by calcium phosphate precipitation in HEK293T cells as previously described by Li M J et al. (2005). CD34+ cells were pre-stimulated overnight in SFT6. Lentiviral transduction was conducted at 1×10^6 cells/mL on Retronectin™ (Takara, Otsu-Shiga Japan)-coated non-tissue culture T-75 flask for 24 h in the presence of […] rapamycin (Sigma-Aldrich, St. Louis, Mo.). Lentivirus and rapamycin were removed and cells were washed once before being resuspended for transplantation in 0.9% NaCl saline solution with Fc/IL-7 as described above.
Mice were necropsied at 16 or 25 weeks post transplantation for analysis of engraftment. Single cell suspensions of bone marrow (femurs) and spleen were prepared by mechanical dissociation and red cells lysed using ACK lysis Buffer (Sigma-Aldrich, St. Louis, Mo.). All cell suspensions were pre-treated with human immunoglobulin (GammaGard, Baxter Healthcare Corp. Deerfield, Ill.) for 30 minutes to block nonspecific antibody staining. Cell suspensions were stained with a human pan-leukocyte antibody to CD45-PC5 (BioLegendR, San Diego, Calif.), and lineage specific antihuman, CD3-ECD, CD4-APC, CD14-APC-Alexa-750, CD19-PE (Invitrogen, Carlsbad, Calif.), and CD8β-PC5 (Beckman Coulter, Brea, Calif.), for 20 minutes and washed 2 times with 1 mL of PBS containing 0.1% BSA (Sigma-Aldrich, St Louis, Mo.). BM cells were stained with antibodies to human CD45-PC5, CD34-PC7, CD45-ECD (Beckman Coulter, Brea, Calif.), CD33-PC5 (BD Biosciences, San Diego, Calif.), CD19-PE, and CD14-APC-Alexa750 (Invitrogen, Carlsbad, Calif.) for 20 minutes and washed 2 times with 1 mL of PBS containing 0.1% BSA. To establish analytical gates and background staining, bone marrow and spleen samples from 2-3 mice that received no human cells mice were stained with the same antibody panel. Samples were analyzed using a Gallios flow cytometer (Beckman Coulter, Hialeah, Fla.) and data analyzed with FCS Express software (De Novo Software, Los Angeles, Calif.).
Lentiviral vectors expressing unique combinations of small anti-HIV RNAs expressed from a naturally occurring micro RNA cluster (MCM-7) are known. See Chung J, et al. Endogenous MCMI microRNA cluster as a novel platform to multiplex small interfering and nucleolar RNAs for combinational HIV-1 gene therapy. Human gene therapy. 2012; 23:1200-1208. […] CD34+ HSPC were transduced with this vector and used to transplant NSG mice as described in materials and methods. Animals were treated with O^6BG and BCNU at weeks 7 and 8 (2× treatment) or weeks 7, 8 and 9 (3× treatment) following transplantation. Two weeks later (11 weeks following transplantation) animals were necropsied and the level of engraftment of the spleen and bone marrow were determined.

[1] = second experiment, different donor, 7 weeks recovery with weekly Fc/IL-7

## O^6-benzylguanine; bis-chloronitrosourea [O^6BG/BCNU]
2-3 rounds of treatment
  Enrichment in GM progeny in bone marrow and spleen: 4-8 fold
2× and 3× treated animals, p<0.0001
  Engraftment of spleen and bone marrow with human cells relative to untreated control: reduced
2× treatment (weeks 7 and 8)
  Enrichment of frequency of CD45+/GFP+ cells in spleen and bone marrow: 10 fold
3× treatment (weeks 7, 8 and 9)
  Enrichment of frequency of CD45+/GFP+ cells in spleen and bone marrow: 15 fold
[1]
  CD45+ cells in bone marrow and spleen: depletion
  Enrichment of CD3+/CD4+/GFP+ T-cells: no significant enrichment
  Frequency of CD45+/GFP+ human cells and CD14+/CD4+/GFP+ monocytes: concomitant increase
Three treatments
  Increase of CD4+/CD14+/GFP+ monocytes in the spleens: 3 fold
Treatment performed three times
  Increase of average frequency of CD3+/CD4+ T-cells in the spleen: 3 fold
